Measurements from US20060035927A1, “Calcilytic compounds” (SmithKline Beecham Corporation, priority 1999, published 2006).
Where a name gives a salt, the structure may show the parent alone.

Tests used:
[1] = tested on: osteopenic ovx rats; experiment: Ovariectomized rat Study 1: bone mineral density by DXA; format: in vivo; conditions: Study 1, ovx rats, 100 mmol/kg body weight daily p.o., eight weeks of dosing
Excerpt: (§1) Seven month old virgin Sprague Dawley female rats were subjected to bilateral ovariectomy or sham surgery and the animals then held for a period of three months to allow the development of osteopenia. At that time a single sham group (n=10) and three groups of ovariectomized (ovx) animals (n=10-14) were assigned. The ovx groups were selected such that there was no significant difference in bone mineral density (“BMD”) of the lumbar spine, proximal tibia or distal femur between groups. Groups consisted of sham and ovx controls treated with dose vehicle (20% aqueous encapsin) and ovx groups treated with either N-[(2R-Hydroxy-3-[(3-chloro-2-cyano)phenoxy-propyl]-1,1-dimethyl-2-(2-naphthyl)ethyl amine hydrochloride (“calcilytic administered”) ([…] body weight daily p.o.) or rat PTH 1-34 (5 ug/kg body weight daily s.c.).
(§2) During the study blood samples were drawn for determination of circulating PTH and osteocalcin. BMD was determined by DXA (QDR4500 Hologic, Waltham, Mass.) prior to treatment and at weeks 4 and 8. At term tibiae were removed for histological analysis. All animals received tetracycline 10 and 3 days prior to the start of dosing and calcein (10 mg/kg) 10 and 3 days prior to sacrifice.

[2] = tested on: plasma PTH; experiment: Ovariectomized rat Study 1: circulating PTH levels (RIA); format: in vivo
Excerpt: as §1, §2
(§3) Timed plasma samples were collected relative to administration of compound or PTH. PTH 1-34 was measured by RIA (Nichols Institute Diagnostics, San Juan Capistrano, Calif.). The concentrations of compound in the plasma were quantified by LC/MS/MS (limit of detection 10 ng/ml).

[3] = Ovariectomized rat Study 1: circulating compound levels (LC/MS/MS); format: in vivo; conditions: Study 1, plasma, after oral administration
Excerpt: as §1, §3

[4] = tested on: human TF274 osteoblastic cells; experiment: Osteoblast cAMP production, TF274 cells; format: cell-based; conditions: compound 0.1, 1 and 10 uM
Description: (§4) cAMP accumulation was measured in both human TF274 osteoblastic cells (derived by immortalization of human bone marrow stromal cells) see James, supra, and primary human osteoblasts derived from explants of trabecular bone as described in Beresford, Biochim. Biophys. Acta, Vol. 801, pp. 58-65 ([…]). cAMP levels in cell samples were measured using a non-radioactive protocol (Amersham kit). Alkaline phosphatase activity was determined using the standard colorimetric method as described previously in Gowen, Arth. Rheum., Vol. 31, pp. 1500-1507 (1988). N-[(2R-Hydroxy-3-[(3-chloro-2-cyano)phenoxy-propyl]-1,1-dimethyl-2-(2-naphthyl)ethyl amine hydrochloride was tested at 0.1, 1 and 10 uM. PTH 40 ng/ml was used as a positive control.

[5] = tested on: primary human osteoblasts; experiment: Osteoblast cAMP production, primary human osteoblasts; format: cell-based; conditions: compound 0.1, 1 and 10 uM
Description: as §4

[6] = tested on: osteoblasts; experiment: Toxicity in vitro in osteoblast assays; format: cell-based, human; conditions: 10 uM concentration
Description: as §4

[7] = tested on: human osteoclasts; experiment: Human osteoclast-mediated bone resorption assay; format: cell-based; conditions: concentrations up to 3 uM, 24 hours
Description: The isolation of disaggregated human osteoclasts from fresh osteoclastoma tissue and the in vitro human osteoclast resorption assay were performed according to James, J. Bone Min. Res., Vol. 11, pp. 1453-1460. Briefly, human osteoclasts were seeded onto bovine cortical bone particles with compound or vehicle for 24 hours at 37° C. The culture media were then removed and the levels of the carboxy-terminal peptide of the α1 chain of human type I collagen were quantified as a biochemical readout of resorption, using a competitive binding enzyme linked immunosorbant assay (ELISA) (19) (Osteometer A/S, Rodovre, Denmark). The results are expressed as percent inhibition of resorption compared to supernatants derived from osteoclasts cultured in vehicle without inhibitor. IC50 values are determined from the resultant dose response curves.

[8] = molecular target: T1, Ca^2+ receptor (Homo sapiens, UniProt P41180); experiment: Ca2+ receptor-mediated Ca2+ mobilization; format: cell-based
T1 sequence (P41180 20-1078): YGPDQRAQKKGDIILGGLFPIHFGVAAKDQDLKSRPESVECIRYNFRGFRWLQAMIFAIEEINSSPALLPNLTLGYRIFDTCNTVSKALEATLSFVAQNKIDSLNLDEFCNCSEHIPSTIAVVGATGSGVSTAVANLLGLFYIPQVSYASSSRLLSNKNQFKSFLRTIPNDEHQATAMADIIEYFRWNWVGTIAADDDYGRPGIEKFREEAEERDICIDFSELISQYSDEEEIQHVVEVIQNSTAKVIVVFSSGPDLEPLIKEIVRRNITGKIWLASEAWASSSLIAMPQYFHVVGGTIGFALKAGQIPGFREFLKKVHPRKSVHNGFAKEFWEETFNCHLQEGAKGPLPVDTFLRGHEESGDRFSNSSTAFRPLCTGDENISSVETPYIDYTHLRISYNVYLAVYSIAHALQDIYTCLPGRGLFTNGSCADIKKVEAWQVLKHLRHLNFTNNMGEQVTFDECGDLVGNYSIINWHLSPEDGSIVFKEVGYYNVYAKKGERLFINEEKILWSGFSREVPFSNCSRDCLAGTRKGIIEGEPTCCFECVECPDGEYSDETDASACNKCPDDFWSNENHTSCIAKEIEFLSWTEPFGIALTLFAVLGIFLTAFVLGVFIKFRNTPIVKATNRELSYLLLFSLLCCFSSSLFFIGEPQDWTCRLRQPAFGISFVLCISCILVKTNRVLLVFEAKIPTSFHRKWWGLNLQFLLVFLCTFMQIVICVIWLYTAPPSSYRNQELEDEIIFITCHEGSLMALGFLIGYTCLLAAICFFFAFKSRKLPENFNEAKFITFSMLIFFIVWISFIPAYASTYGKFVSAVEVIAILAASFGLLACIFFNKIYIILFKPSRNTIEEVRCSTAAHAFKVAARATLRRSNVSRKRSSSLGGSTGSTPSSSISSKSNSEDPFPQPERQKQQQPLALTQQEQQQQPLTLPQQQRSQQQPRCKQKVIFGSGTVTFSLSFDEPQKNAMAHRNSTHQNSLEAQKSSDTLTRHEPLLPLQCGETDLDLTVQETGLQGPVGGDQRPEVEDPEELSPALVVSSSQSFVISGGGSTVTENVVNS

CC(C)(Cc1ccc2ccccc2c1)NC[C@@H](O)COc1cccc(Cl)c1C#N [N-[(2R-Hydroxy-3-[(3-chloro-2-cyano)phenoxy-propyl]-1,1-dimethyl-2-(2-naphthyl)ethylamine hydrochloride]
bone mass (BMD; lumbar spine, distal femur, proximal tibia) [1]: unaffected | plasma PTH levels at four hours after administration ([2]; Study 1, after calcilytic 100 mmol/kg p.o.): remained high | plasma PTH levels ([2]; Study 1, end of experiment, after calcilytic 100 mmol/kg p.o.): > 100 pg/mL | plasma PTH levels after 24 hours ([2]; Study 1, immediately prior to next dose of calcilytic): back to baseline | sustained exposure to compound (circulating levels) [3]: elevated for up to eight hours | PTH-induced cAMP levels ([4]; PTH 40 ng/ml): no effect | cAMP levels (basal) ([4]; PTH 40 ng/ml positive control): no effect | PTH-induced cAMP levels ([5]; PTH 40 ng/ml): no effect | cAMP levels (basal) ([5]; PTH 40 ng/ml positive control): no effect | toxicity in vitro [6]: some toxicity | effect on human osteoclast mediated bone resorption [7]: no effect | fold by which fetal rat long bone IC50 exceeds IC50 for Ca^2+ receptor-mediated Ca^2+ mobilization [8]: approximately 300 fold
